# PubChem BioAssay (NCI)
#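 Cells were grown in 96-well plates and exposed to each compound for 48 hours at five concentrations; endpoints were interpolated linearly between bracketing concentrations, or set to the highest concentration if not reached. Abbreviation: GI50, concentration required for 50% inhibition of growth. TGI marks complete inhibition of growth.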
# How the values were obtained:
# Test in all cases: NCI tumour cell line growth inhibition, 48 h
# [1] = test system: A549 NSCLC
# [2] = test system: CCRF-CEM leukemia
# [3] = test system: HCC-2998 colon
# [4] = test system: HOP-92 NSCLC
# [5] = test system: SF-295 CNS
# [6] = test system: SF-539 CNS
# [7] = test system: SK-OV-3 ovarian
# [8] = test system: TK-10 renal
# [9] = test system: UACC-62 melanoma
# [10] = test system: UO-31 renal
Compound,TGI [1],TGI [2],TGI [3],TGI [4],TGI [5],TGI [6],TGI [7],TGI [8],TGI [9],TGI [10],GI50 [1],GI50 [2],GI50 [3],GI50 [4],GI50 [5],GI50 [6],GI50 [7],GI50 [8],GI50 [9],GI50 [10]
CC(=O)O[C@H]1CCC2[C@@H]3CCC4=C(O)C(=O)C(C#N)C[C@]4(C)C3CC[C@@]21C (stereo not given in full),> 100 µM,> 100 µM,> 100 µM,8.33 µM,> 100 µM,> 100 µM,> 100 µM,> 100 µM,> 100 µM,> 100 µM,–,–,–,–,–,–,–,–,–,–
O=C(Cc1nc2ccccc2s1)C(=O)Nc1cccc(Cl)c1,> 100 µM,> 100 µM,> 100 µM,> 100 µM,> 100 µM,> 100 µM,> 100 µM,> 100 µM,> 100 µM,> 100 µM,–,–,–,–,–,–,–,–,–,–
COC1=CC23CCCN2CCc2cc4c(cc2C3C1O)OCO4 (stereo not given),> 100 µM,> 100 µM,> 100 µM,> 100 µM,> 100 µM,> 100 µM,> 100 µM,> 100 µM,> 100 µM,> 100 µM,–,–,–,–,–,–,–,–,–,–
O=C(/C=N/O)Nc1cc(Cl)c(Cl)cc1Cl,> 100 µM,91.9 µM,> 100 µM,> 100 µM,87.6 µM,> 100 µM,> 100 µM,> 100 µM,76.3 µM,> 100 µM,–,–,–,–,–,–,–,–,–,–
CCOC(=O)C(=O)Nc1ccc(Cl)cc1C,> 100 µM,> 100 µM,> 100 µM,> 100 µM,> 100 µM,> 100 µM,> 100 µM,> 100 µM,> 100 µM,> 100 µM,–,–,–,–,–,–,–,–,–,–
COc1ccc(Cc2cc3c(cc2OCC(=O)O)OCO3)cc1,> 100 µM,> 100 µM,> 100 µM,> 100 µM,> 100 µM,> 100 µM,> 100 µM,> 100 µM,> 100 µM,> 100 µM,–,–,–,–,–,–,–,–,–,–
CCCCCCCCCc1cc[n+](CC(=O)c2ccc([N+](=O)[O-])cc2)cc1,3.13 µM,5.01 µM,1.93 µM,1.03 µM,2.79 µM,3.1 µM,3.18 µM,2.88 µM,2.54 µM,2.9 µM,1.64 µM,1.95 µM,0.514 µM,0.234 µM,1.44 µM,1.65 µM,1.66 µM,1.47 µM,1.23 µM,1.48 µM
Nc1ccccc1NC(=O)c1ccc(CCCC(=O)Nc2ccc(C3CC3N)cc2)cc1 (stereo not given),> 100 µM,> 100 µM,5.65 µM,4.21 µM,9.43 µM,70.9 µM,42.4 µM,26.8 µM,3.03 µM,20.6 µM,4.38 µM,2.63 µM,1.72 µM,0.359 µM,1.96 µM,0.972 µM,2.15 µM,0.36 µM,0.573 µM,4.62 µM
COC1=CC(=O)C(OC)=C(OC)C1=O,> 100 µM,8.39 µM,> 100 µM,22.4 µM,33.5 µM,30.9 µM,> 100 µM,30 µM,27.9 µM,26.3 µM,49.5 µM,2.8 µM,> 100 µM,9.38 µM,17.8 µM,16.5 µM,72.9 µM,15.3 µM,14.4 µM,13 µM
CC#C/C(=N\OC[C@H]1COCCN1)c1ccc2ncnc(Nc3ccc(OCc4cccc(F)c4)c(Cl)c3)c2c1,9.85 µM,3.85 µM,3.41 µM,2.48 µM,3.26 µM,3.2 µM,1.35 µM,1.48 µM,3.11 µM,2.41 µM,1.64 µM,1.73 µM,1.84 µM,1.14 µM,1.72 µM,1.68 µM,0.0176 µM,0.0335 µM,1.68 µM,1.13 µM
C[C@@H](CN1CC(=O)NC(=O)C1)N1CC(=O)NC(=O)C1,692 µM,1840 µM,1540 µM,908 µM,779 µM,1060 µM,1870 µM,1110 µM,570 µM,1060 µM,–,–,–,–,–,–,–,–,–,–
OC(COc1ccc(F)cc1)Cn1cnc2c(Cl)ncnc21 (stereo not given),> 100 µM,> 100 µM,42.3 µM,> 100 µM,> 100 µM,> 100 µM,> 100 µM,> 100 µM,> 100 µM,> 100 µM,> 100 µM,50.8 µM,19.3 µM,> 100 µM,> 100 µM,> 100 µM,> 100 µM,63.3 µM,79 µM,> 100 µM
CN1CCN(c2ccc(Nc3nc(N)c(C(=O)c4ccc5c(c4)OCCO5)s3)cc2)CC1,15.7 µM,23.9 µM,> 19.6 µM,3.5 µM,10 µM,8.33 µM,10.6 µM,10.1 µM,9.35 µM,8.02 µM,4.3 µM,4.66 µM,9.67 µM,0.204 µM,3.65 µM,4.25 µM,4.36 µM,3.14 µM,4.19 µM,2.6 µM
Cc1cc2cn3c4ccc(O)cc4[nH]c(=O)c3c2cc1C,1.04 µM,1.81 µM,1.3 µM,1.95 µM,0.221 µM,0.0601 µM,0.298 µM,2.13 µM,1.78 µM,1.84 µM,0.0308 µM,0.0418 µM,0.0679 µM,0.0723 µM,0.0356 µM,0.0223 µM,0.0293 µM,0.667 µM,0.0411 µM,0.0228 µM
CCN(CC)c1ccc2c(c1)Oc1nc(N)c(C#N)c(N)c1C2Sc1ccc(OC)cc1 (stereo not given),3.59 µM,5.47 µM,3.43 µM,3.37 µM,3.6 µM,3.04 µM,3.38 µM,4.33 µM,3.34 µM,2.85 µM,1.99 µM,1.75 µM,1.81 µM,1.86 µM,1.93 µM,1.64 µM,1.92 µM,2.8 µM,1.72 µM,1.52 µM
